Test results: PubChem BioAssay AID192 (DTP/NCI, 2004)
Inconclusive results and toxic doses are left out. The calls were made as follows: active = survival T/C of 150% or more; inactive = T/C below 125% in these data.

System: BDF1 mice, B16 melanoma ip, median survival T/C
Test: NCI In Vivo Anticancer Drug Screen. Data for tumor model B16 Melanoma (intraperitoneal) in B6D2F1 (BDF1) mice
Details: endpoint: median survival time, higher = longer survival
How it was run: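 Vehicle-treated animals serve as the reference (C); treated animals (T) are scored for survival or tumor size after tumor transplantation.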

[1] = dose: 100.0 mg/kg/injection, schedule: Q01DX009 (ip), vehicle: saline with Tween-80
[2] = dose: 200.0 mg/kg/injection, schedule: Q01DX009 (ip), vehicle: saline with Tween-80

Measured: T/C

Cc1ccc(Cl)cc1NS(=O)(=O)c1ccccc1
inactive: [1] 90 % of control | [2] 95 % of control | dose: 400.0 mg/kg/injection, schedule: Q01DX009 (ip), vehicle: saline with Tween-80 90 % of control

C1CC[N-]CC1.CC(=N\O)/C(C)=N/O.CC(=N\O)/C(C)=N/O.[CH2-]C.[Co+2]
inactive: dose: 25.0 mg/kg/injection, schedule: Q01DX009 (ip), vehicle: Klucel (hydroxypropylcellulose) (HPC) 111 % of control | dose: 50.0 mg/kg/injection, schedule: Q01DX009 (ip), vehicle: Klucel (hydroxypropylcellulose) (HPC) 102 % of control

Cc1c(Cl)cccc1NS(=O)(=O)c1cccc([N+](=O)[O-])c1
inactive: dose: 50.0 mg/kg/injection, schedule: Q01DX009 (ip), vehicle: saline with Tween-80 100 % of control | [1] 91 % of control | [2] 98 % of control

CCc1nc(N)nc(N)c1-c1ccc(Cl)cc1
inactive: dose: 4.0 mg/kg/injection, schedule: Q01DX009 (ip), vehicle: Klucel (hydroxypropylcellulose) (HPC) 93 % of control | dose: 4.0 mg/kg/injection, schedule: Q01DX009 (oral), vehicle: Klucel (hydroxypropylcellulose) (HPC) 102 % of control | dose: 4.0 mg/kg/injection, schedule: Q01DX009 (sc), vehicle: Klucel (hydroxypropylcellulose) (HPC) 90 % of control | dose: 4.0 mg/kg/injection, schedule: Q06HX004 (ip), vehicle: Klucel (hydroxypropylcellulose) (HPC) 107 % of control | dose: 4.0 mg/kg/injection, schedule: Q06HX008 (ip), vehicle: Klucel (hydroxypropylcellulose) (HPC) 91 % of control | dose: 8.0 mg/kg/injection, schedule: Q01DX009 (ip), vehicle: Klucel (hydroxypropylcellulose) (HPC) 95 % of control | dose: 8.0 mg/kg/injection, schedule: Q01DX009 (oral), vehicle: Klucel (hydroxypropylcellulose) (HPC) 100 % of control | dose: 8.0 mg/kg/injection, schedule: Q01DX009 (sc), vehicle: Klucel (hydroxypropylcellulose) (HPC) 92 % of control | dose: 8.0 mg/kg/injection, schedule: Q06HX004 (ip), vehicle: Klucel (hydroxypropylcellulose) (HPC) 90 % of control | dose: 8.0 mg/kg/injection, schedule: Q06HX008 (ip), vehicle: Klucel (hydroxypropylcellulose) (HPC) 104 % of control | dose: 8.0 mg/kg/injection, schedule: Q06HX012 (ip), vehicle: Klucel (hydroxypropylcellulose) (HPC) 100 % of control | dose: 16.0 mg/kg/injection, schedule: Q01DX001 (ip), vehicle: Klucel (hydroxypropylcellulose) (HPC) 96 % of control | dose: 16.0 mg/kg/injection, schedule: Q01DX001 (oral), vehicle: Klucel (hydroxypropylcellulose) (HPC) 106 % of control | dose: 16.0 mg/kg/injection, schedule: Q01DX001 (sc), vehicle: Klucel (hydroxypropylcellulose) (HPC) 113 % of control | dose: 16.0 mg/kg/injection, schedule: Q01DX009 (ip), vehicle: Klucel (hydroxypropylcellulose) (HPC) 113 % of control | dose: 16.0 mg/kg/injection, schedule: Q01DX009 (oral), vehicle: Klucel (hydroxypropylcellulose) (HPC) 113 % of control | dose: 16.0 mg/kg/injection, schedule: Q01DX009 (sc), vehicle: Klucel (hydroxypropylcellulose) (HPC) 98 % of control | dose: 16.0 mg/kg/injection, schedule: Q04DX003 (ip), vehicle: Klucel (hydroxypropylcellulose) (HPC) 86 % of control | dose: 16.0 mg/kg/injection, schedule: Q06HX004 (ip), vehicle: Klucel (hydroxypropylcellulose) (HPC) 98 % of control | dose: 16.0 mg/kg/injection, schedule: Q06HX008 (ip), vehicle: Klucel (hydroxypropylcellulose) (HPC) 108 % of control | dose: 16.0 mg/kg/injection, schedule: Q06HX012 (ip), vehicle: Klucel (hydroxypropylcellulose) (HPC) 87 % of control | dose: 16.0 mg/kg/injection, schedule: Q08DX002 (ip), vehicle: Klucel (hydroxypropylcellulose) (HPC) 87 % of control | dose: 32.0 mg/kg/injection, schedule: Q01DX001 (ip), vehicle: Klucel (hydroxypropylcellulose) (HPC) 96 % of control | dose: 32.0 mg/kg/injection, schedule: Q01DX001 (oral), vehicle: Klucel (hydroxypropylcellulose) (HPC) 104 % of control | dose: 32.0 mg/kg/injection, schedule: Q01DX001 (sc), vehicle: Klucel (hydroxypropylcellulose) (HPC) 117 % of control | dose: 32.0 mg/kg/injection, schedule: Q01DX009 (ip), vehicle: Klucel (hydroxypropylcellulose) (HPC) 102 % of control | dose: 32.0 mg/kg/injection, schedule: Q01DX009 (oral), vehicle: Klucel (hydroxypropylcellulose) (HPC) 120 % of control | dose: 32.0 mg/kg/injection, schedule: Q01DX009 (sc), vehicle: Klucel (hydroxypropylcellulose) (HPC) 103 % of control | dose: 32.0 mg/kg/injection, schedule: Q04DX003 (ip), vehicle: Klucel (hydroxypropylcellulose) (HPC) 100 % of control | dose: 32.0 mg/kg/injection, schedule: Q06HX008 (ip), vehicle: Klucel (hydroxypropylcellulose) (HPC) 100 % of control | dose: 32.0 mg/kg/injection, schedule: Q08DX002 (ip), vehicle: Klucel (hydroxypropylcellulose) (HPC) 102 % of control | dose: 64.0 mg/kg/injection, schedule: Q01DX001 (sc), vehicle: Klucel (hydroxypropylcellulose) (HPC) 117 % of control | dose: 64.0 mg/kg/injection, schedule: Q01DX009 (sc), vehicle: Klucel (hydroxypropylcellulose) (HPC) 101 % of control | dose: 64.0 mg/kg/injection, schedule: Q04DX003 (ip), vehicle: Klucel (hydroxypropylcellulose) (HPC) 100 % of control | dose: 64.0 mg/kg/injection, schedule: Q08DX002 (ip), vehicle: Klucel (hydroxypropylcellulose) (HPC) 100 % of control | dose: 128.0 mg/kg/injection, schedule: Q01DX001 (sc), vehicle: Klucel (hydroxypropylcellulose) (HPC) 106 % of control
